Results reported in PubChem BioAssay AID1996.
Values after ≈ are worked out from the molar mass of the structure shown.

conditions: buffer; pH 7.4; 200.0 µM

First: CC1(C)Cc2cccc(OCC(=O)NCc3ccccc3)c2O1
Second: O=C(CCC(=O)c1ccc(Cl)cc1)NCc1ccccc1
The solubility kinetic of the first is higher: greater than 46.7 µg/mL for the first, 14.3 µg/mL (≈ 47.4 µM) for the second.

Compared with `CCOC(=O)c1csc(-c2sccc2Br)n1`, `CCOC(=O)CSc1nc2ccccc2n2c(C)nnc12` is higher in solubility kinetic: 18.7 µg/mL (≈ 58.8 µM) for the first, greater than 45.4 µg/mL for the second.

Compared with `COc1ccc(Nc2nccc(-c3ccc(C#N)cc3)n2)cc1`, `c1coc(-c2ccnc(-c3ccncc3)n2)c1` is higher in solubility kinetic: 0.7 µg/mL (≈ 2.32 µM) for the first, greater than 33.5 µg/mL for the second.

Going from `Cc1[nH]c(=S)c(C#N)c(C)c1Cc1ccccc1` to `Cc1ccc(C)c(NC(=O)C(CC(=O)O)Cc2ccccc2)c1` (stereo not drawn), the solubility kinetic rises from 8.6 µg/mL (≈ 33.8 µM) to greater than 46.7 µg/mL.

First: COc1ccc(CNC(=O)c2sccc2-c2ccccc2)cc1OC
Second: Nc1ccc2oc(=O)c(-c3ccccc3)cc2c1
The solubility kinetic of the first is 1.7-fold higher: 33.7 µg/mL (≈ 95.3 µM) for the first, 19.3 µg/mL (≈ 81.3 µM) for the second.

`CC(=O)N1c2ccccc2C(=O)C1N(C)c1ccc(C)cc1` (stereo not drawn) and `O=C(Cc1nc2ccccc2[nH]1)c1ccc(Br)cc1` are within 1.5-fold of each other in solubility kinetic: 16.9 µg/mL (≈ 57.4 µM) for the first, 24.6 µg/mL (≈ 78.1 µM) for the second.

First: Fc1cccc(Cl)c1CSC1=NCCS1
Second: Cn1nccc1C(=O)N1CCN(c2ccccc2Cl)CC1
The solubility kinetic of the first is lower: 2.3 µg/mL (≈ 8.79 µM) for the first, greater than 45.7 µg/mL for the second.

`O=c1[nH]c(/C=C/c2ccccc2Cl)c([N+](=O)[O-])c(=O)[nH]1` and `Cc1cc(OC(=O)c2ccccc2F)c([N+](=O)[O-])c(=O)[nH]1` cannot be ordered by solubility kinetic: greater than 44.1 µg/mL for the first, greater than 43.8 µg/mL for the second.

Compared with `O=C(COc1ccc(F)cc1)Nc1nc2c(s1)CCCC2`, `CCOc1ccc(NC(=O)CSc2ncn[nH]2)cc1` is higher in solubility kinetic: 2.6 µg/mL (≈ 8.49 µM) for the first, greater than 41.7 µg/mL for the second.

`COc1ccc(S(=O)(=O)N2CC(C)N(C(=O)N(C)C)C2C)cc1` (stereo not drawn) and `Cc1ccc(S(=O)(=O)NC(=O)N(C)C2CCCCC2)cc1` cannot be ordered by solubility kinetic: greater than 51.2 µg/mL for the first, greater than 46.6 µg/mL for the second.

First: Cc1nc2ccc(Cl)cc2nc1C
Second: CCc1cc2c(Nc3ccccc3O)nc(C)nc2s1.Cl
The solubility kinetic of the first is higher: 9.4 µg/mL (≈ 48.8 µM) for the first, less than 0.2 µg/mL for the second.

Compared with `CCCCn1c(O)c(C(C)=NCCc2c[nH]c3ccccc23)c(=O)[nH]c1=O`, `CCOC(=O)c1c(O)c(O)c(C(=O)OCC)n1-c1ccccc1` is higher in solubility kinetic: 0.4 µg/mL (≈ 1.09 µM) for the first, greater than 47.9 µg/mL for the second.

Compared with `COc1cccc(CNc2ccc(N3CCCCC3)cc2)c1OC`, `COc1ccc(NS(=O)(=O)c2ccc(O)c([N+](=O)[O-])c2)cc1S(=O)(=O)N1CCCCC1` is higher in solubility kinetic: 39.5 µg/mL (≈ 121 µM) for the first, greater than 70.7 µg/mL for the second.

Compared with `CC(C)(C)c1ccc(C(=S)N2CCN(c3ccccc3)CC2)cc1`, `CC(C)(C)NC(=O)COC(=O)c1ccccc1C(=O)c1ccccc1` is higher in solubility kinetic: less than 0.4 µg/mL for the first, 43.4 µg/mL (≈ 128 µM) for the second.

`O=C(O)c1cccnc1SCc1ccc([N+](=O)[O-])cc1` and `O=C(O)c1ccc(NCCc2ccc(Cl)cc2)c([N+](=O)[O-])c1` cannot be ordered by solubility kinetic: greater than 43.5 µg/mL for the first, 44.6 µg/mL (≈ 139 µM) for the second.

Compared with `Cc1cc(C)c2cc(C(=O)Nc3ccc4c(c3)OCO4)[nH]c2c1`, `Cc1cc(C)cc(C(=O)Oc2cc(C)[nH]c(=O)c2[N+](=O)[O-])c1` is higher in solubility kinetic: less than 0.3 µg/mL for the first, greater than 45.3 µg/mL for the second.

`O=C(COC(=O)c1ccc(F)cc1Cl)NC1CCCCCCC1` and `CCOC(=O)C1CCN(C(=O)Nc2cc(Cl)cc(Cl)c2)CC1` are within 1.5-fold of each other in solubility kinetic: 21.2 µg/mL (≈ 62 µM) for the first, 20.4 µg/mL (≈ 59.1 µM) for the second.

`Cc1cc(=O)c2c([nH]1)c(C)cc1[nH]c(C)c(C)c12` and `CSc1nc([O-])cc(=O)n1-c1ccc(F)cc1.[K+]` cannot be ordered by solubility kinetic: greater than 36 µg/mL for the first, greater than 43.6 µg/mL for the second.

First: O=C(NCc1ccco1)/C(=C/c1ccccc1)NC(=O)c1ccco1
Second: O=C(NC(=S)NCc1ccc(Cl)cc1)c1ccco1
The solubility kinetic of the first is 4-fold higher: 42.4 µg/mL (≈ 126 µM) for the first, 10.6 µg/mL (≈ 36 µM) for the second.

First: Cc1cccc(NC(=S)N(CCN(C)C)Cc2cccs2)c1
Second: CSc1cccc(NC(=S)NC(=O)CCc2ccccc2)c1
The solubility kinetic of the first is 67-fold higher: 46.7 µg/mL (≈ 140 µM) for the first, 0.7 µg/mL (≈ 2.12 µM) for the second.

`O=C(Nc1ccc(Cl)cc1)N1CCOCC1` and `COc1ccccc1NC(=O)N1CCC(c2nc3ccccc3o2)CC1` cannot be ordered by solubility kinetic: greater than 36.1 µg/mL for the first, 44.9 µg/mL (≈ 128 µM) for the second.

Going from `CCC(CC)C(=O)Nc1ccncc1` to `Nc1c(C(=O)Nc2ccccc2)c2nc3ccccc3nc2n1-c1ccc(O)cc1`, the solubility kinetic falls from 10.9 µg/mL (≈ 56.7 µM) to 0.7 µg/mL (≈ 1.77 µM) (16-fold).

Going from `CC(C)c1ccc(CN2C(=O)NC3(CCCCCC3)C2=O)cc1` to `O=c1ncn(-c2cccc(Cl)c2)c2ccccc12`, the solubility kinetic rises from less than 0.3 µg/mL to 38 µg/mL (≈ 148 µM).

`NC(=S)Nc1ccc(F)cc1F` and `CC1CCN(C(=O)CSc2nc(C3CC3)nc3ccccc23)CC1` cannot be ordered by solubility kinetic: greater than 28.2 µg/mL for the first, greater than 51.2 µg/mL for the second.
